Measured values: patent US11136313B2, “Compounds, compositions, and methods for modulating CFTR” (Proteostasis Therapeutics, Inc., priority 2015, dated 2021)

Target: T1, ΔF508-CFTR (Homo sapiens, UniProt P13569, DEL508-508)
T1 construct: Primary lung epithelial cells homozygous for the Cystic Fibrosis-causing ΔF508 mutation were differentiated for a minimum of 4 weeks; endogenous in cells; host or cells: primary lung epithelial cells (hBE) homozygous for ΔF508, differentiated at an air-liquid interface
T1 sequence (P13569 with tags, fused parts or gaps DEL508-508): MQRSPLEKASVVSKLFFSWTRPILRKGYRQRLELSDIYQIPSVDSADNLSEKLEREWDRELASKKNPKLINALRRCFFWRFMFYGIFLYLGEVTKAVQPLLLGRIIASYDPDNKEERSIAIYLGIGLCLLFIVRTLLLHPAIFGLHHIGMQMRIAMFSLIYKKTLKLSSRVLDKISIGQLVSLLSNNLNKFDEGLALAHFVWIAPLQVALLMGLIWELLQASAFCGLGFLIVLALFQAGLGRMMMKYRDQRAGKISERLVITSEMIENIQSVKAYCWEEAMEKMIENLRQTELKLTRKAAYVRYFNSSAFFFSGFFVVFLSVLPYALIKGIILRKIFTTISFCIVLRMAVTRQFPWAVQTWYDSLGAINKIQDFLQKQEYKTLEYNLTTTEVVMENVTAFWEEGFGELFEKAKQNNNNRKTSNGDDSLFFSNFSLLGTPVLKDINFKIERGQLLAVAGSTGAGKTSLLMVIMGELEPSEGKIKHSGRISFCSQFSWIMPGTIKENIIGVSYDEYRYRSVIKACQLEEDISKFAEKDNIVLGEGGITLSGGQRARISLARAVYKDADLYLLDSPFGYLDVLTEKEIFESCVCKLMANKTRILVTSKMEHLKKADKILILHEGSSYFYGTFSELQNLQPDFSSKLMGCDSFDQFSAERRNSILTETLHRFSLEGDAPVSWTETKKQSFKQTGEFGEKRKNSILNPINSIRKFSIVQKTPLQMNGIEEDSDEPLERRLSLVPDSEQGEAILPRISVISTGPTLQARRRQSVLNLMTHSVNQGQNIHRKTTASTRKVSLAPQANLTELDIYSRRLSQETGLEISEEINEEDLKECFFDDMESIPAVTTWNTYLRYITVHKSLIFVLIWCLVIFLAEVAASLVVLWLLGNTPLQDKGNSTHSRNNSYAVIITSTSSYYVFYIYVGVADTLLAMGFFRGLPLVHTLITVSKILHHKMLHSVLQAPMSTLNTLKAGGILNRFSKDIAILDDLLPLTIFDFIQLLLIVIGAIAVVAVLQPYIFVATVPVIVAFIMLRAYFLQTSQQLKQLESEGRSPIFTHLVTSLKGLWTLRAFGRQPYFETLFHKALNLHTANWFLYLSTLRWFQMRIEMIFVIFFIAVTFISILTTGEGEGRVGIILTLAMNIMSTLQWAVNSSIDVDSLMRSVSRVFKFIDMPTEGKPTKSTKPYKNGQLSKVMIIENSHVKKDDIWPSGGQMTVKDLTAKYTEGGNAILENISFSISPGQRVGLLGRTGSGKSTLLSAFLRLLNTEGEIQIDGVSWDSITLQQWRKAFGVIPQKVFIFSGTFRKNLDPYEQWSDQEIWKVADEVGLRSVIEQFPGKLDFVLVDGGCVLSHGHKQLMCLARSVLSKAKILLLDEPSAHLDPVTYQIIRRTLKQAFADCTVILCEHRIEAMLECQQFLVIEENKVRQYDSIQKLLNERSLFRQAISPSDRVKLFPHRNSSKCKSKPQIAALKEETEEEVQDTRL
Test: hBE equivalent current (Ieq) assay: AUC of equivalent chloride current after forskolin/VX-770 in primary lung epithelial cells homozygous for ΔF508
Assay type: cell-based
Details: relative to CFTR amplifier (Compound A)+VX-809 (3 uM), compound at 10 uM and Compound A at 3 uM, 24 h treatment
Procedure, shortened: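 Readout is the increase over vehicle in equivalent chloride current AUC from forskolin/VX-770 addition to bumetanide, measured by current clamp at 36 °C after benzamil block of ENaC. Cultures were homozygous ΔF508 primary lung epithelium grown ≥4 weeks at air-liquid interface and exposed basolaterally to compound for 24 h.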

Structure (SMILES) | Activity
Cc1c(-c2cc(C(=O)[O-])c3c(OC[C@H]4CC[C@](C)(O)CC4)ccc(C)c3n2)sc2ccccc12.[Na+] [Compound 323] | ++ (activity>50% of CFTR amplifier+VX-809 (3 uM) with compound at 10 uM and Compound A at 3 uM)
CO[C@]1(C)C[C@H](COc2ccc(C)c3nc(-c4sc5ccccc5c4C)cc(C(=O)[O-])c23)C1.[Na+] [Compound 324] | ++ (activity>50% of CFTR amplifier+VX-809 (3 uM) with compound at 10 uM and Compound A at 3 uM)
CO[C@]1(C)C[C@@H](COc2ccc(C)c3nc(-c4sc5ccccc5c4C)cc(C(=O)[O-])c23)C1.[Na+] [Compound 325] | ++ (activity>50% of CFTR amplifier+VX-809 (3 uM) with compound at 10 uM and Compound A at 3 uM)
CO[C@]1(C)CC[C@H](COc2ccc(C)c3nc(-c4sc5ccccc5c4C)cc(C(=O)[O-])c23)CC1.[Na+] [Compound 326] | ++ (activity>50% of CFTR amplifier+VX-809 (3 uM) with compound at 10 uM and Compound A at 3 uM)
CO[C@]1(C)CC[C@@H](COc2ccc(C)c3nc(-c4sc5ccccc5c4C)cc(C(=O)[O-])c23)CC1.[Na+] [Compound 327] | ++ (activity>50% of CFTR amplifier+VX-809 (3 uM) with compound at 10 uM and Compound A at 3 uM)
Cc1ccc(OC(C)c2ccccc2)c2c(C(=O)[O-])cc(-c3cc4ccccn4c3)nc12.[Na+] (stereo not shown) [Compound 328] | ++ (activity>50% of CFTR amplifier+VX-809 (3 uM) with compound at 10 uM and Compound A at 3 uM)
Cc1c(-c2cc(C(=O)[O-])c3c(O[C@@H](C)C4CCOCC4)ccc(C)c3n2)sc2ccccc12.[Na+] [Compound 329] | ++ (activity>50% of CFTR amplifier+VX-809 (3 uM) with compound at 10 uM and Compound A at 3 uM)
Cc1c(-c2cc(C(=O)[O-])c3c(O[C@H](C)C4CCOCC4)ccc(C)c3n2)sc2ccccc12.[Na+] [Compound 330] | ++ (activity>50% of CFTR amplifier+VX-809 (3 uM) with compound at 10 uM and Compound A at 3 uM)
Cc1c(-c2cc(C(=O)[O-])c3c(OC4CCOCC4)ccc(C)c3n2)sc2ccccc12.[Na+] [Compound 331] | ++ (activity>50% of CFTR amplifier+VX-809 (3 uM) with compound at 10 uM and Compound A at 3 uM)
Cc1c(-c2cc(C(=O)[O-])c3c(OC4CCOCC4)ccc(C)c3n2)oc2ccccc12.[Na+] [Compound 332] | ++ (activity>50% of CFTR amplifier+VX-809 (3 uM) with compound at 10 uM and Compound A at 3 uM)
Cc1c(-c2cc(C(=O)[O-])c3c(OC4CC(C)(C)OC(C)(C)C4)ccc(C)c3n2)sc2ccccc12.[Na+] [Compound 333] | ++ (activity>50% of CFTR amplifier+VX-809 (3 uM) with compound at 10 uM and Compound A at 3 uM)
Cc1c(-c2cc(C(=O)[O-])c3c(OC4CC(C)(C)OC(C)(C)C4)ccc(C)c3n2)oc2ccccc12.[Na+] [Compound 334] | ++ (activity>50% of CFTR amplifier+VX-809 (3 uM) with compound at 10 uM and Compound A at 3 uM)
Cc1c(-c2cc(C(=O)O)c3c(OC4CCCc5ccccc54)ccc(C)c3n2)oc2ccccc12 (stereo not shown) [Compound 335] | ++ (activity>50% of CFTR amplifier+VX-809 (3 uM) with compound at 10 uM and Compound A at 3 uM)
Cc1c(-c2cc(C(=O)O)c3c(OC4CCc5ccccc54)ccc(C)c3n2)oc2ccccc12 (stereo not shown) [Compound 336] | ++ (activity>50% of CFTR amplifier+VX-809 (3 uM) with compound at 10 uM and Compound A at 3 uM)
Cc1c(-c2cc(C(=O)[O-])c3c(OCC4CC(C)(C)OC(C)(C)C4)ccc(C)c3n2)sc2ccccc12.[Na+] [Compound 337] | ++ (activity>50% of CFTR amplifier+VX-809 (3 uM) with compound at 10 uM and Compound A at 3 uM)
Cc1c(-c2cc(C(=O)[O-])c3c(OCC4CC(C)(C)OC(C)(C)C4)ccc(C)c3n2)oc2ccccc12.[Na+] [Compound 338] | ++ (activity>50% of CFTR amplifier+VX-809 (3 uM) with compound at 10 uM and Compound A at 3 uM)

Structure (SMILES) | Activity
Cc1c(-c2cc(C(=O)[O-])c3c(OCC4COC4)ccc(C)c3n2)oc2ccccc12.[Na+] [Compound 343] | ++ (activity>50% of CFTR amplifier+VX-809 (3 uM) with compound at 10 uM and Compound A at 3 uM)
Cc1c(-c2cc(C(=O)[O-])c3c(OCC4COC4)ccc(C)c3n2)sc2ccccc12.[Na+] [Compound 346] | ++ (activity>50% of CFTR amplifier+VX-809 (3 uM) with compound at 10 uM and Compound A at 3 uM)
Cc1c(-c2cc(C(=O)O)c3c(OC(C)c4ccc5nccn5c4)ccc(C)c3n2)oc2ccccc12 (stereo not shown) [Compound 347] | + (activity<50% of an CFTR amplifier (Compound A)+VX-809 (3 uM) with compound at 10 uM and Compound A at 3 uM)
Cc1c(-c2cc(C(=O)[O-])c3c(O[C@H]4C[C@H](C5CCOCC5)C4)ccc(C)c3n2)oc2ccccc12.[Na+] [Compound 350] | ++ (activity>50% of CFTR amplifier+VX-809 (3 uM) with compound at 10 uM and Compound A at 3 uM)
Cc1c(-c2cc(C(=O)[O-])c3c(O[C@@H]4C[C@H]5CC[C@@H](C4)O5)ccc(C)c3n2)sc2ccccc12.[Na+] [Compound 352] | ++ (activity>50% of CFTR amplifier+VX-809 (3 uM) with compound at 10 uM and Compound A at 3 uM)
Cc1c(-c2cc(C(=O)[O-])c3c(O[C@H]4C[C@H]5CC[C@@H](C4)O5)ccc(C)c3n2)sc2ccccc12.[Na+] [Compound 353] | ++ (activity>50% of CFTR amplifier+VX-809 (3 uM) with compound at 10 uM and Compound A at 3 uM)
Cc1c(-c2cc(C(=O)[O-])c3c(O[C@@H]4C[C@H]5CC[C@@H](C4)O5)ccc(C)c3n2)oc2ccccc12.[Na+] [Compound 354] | ++ (activity>50% of CFTR amplifier+VX-809 (3 uM) with compound at 10 uM and Compound A at 3 uM)
Cc1c(-c2cc(C(=O)[O-])c3c(O[C@H]4C[C@H]5CC[C@@H](C4)O5)ccc(C)c3n2)oc2ccccc12.[Na+] [Compound 355] | ++ (activity>50% of CFTR amplifier+VX-809 (3 uM) with compound at 10 uM and Compound A at 3 uM)
Cc1c(-c2cc(C(=O)[O-])c3c(OC[C@@H]4C[C@H]5CC[C@@H](C4)O5)ccc(C)c3n2)oc2ccccc12.[Na+] [Compound 356] | ++ (activity>50% of CFTR amplifier+VX-809 (3 uM) with compound at 10 uM and Compound A at 3 uM)
Cc1c(-c2cc(C(=O)[O-])c3c(OC[C@H]4C[C@H]5CC[C@@H](C4)O5)ccc(C)c3n2)oc2ccccc12.[Na+] [Compound 357] | ++ (activity>50% of CFTR amplifier+VX-809 (3 uM) with compound at 10 uM and Compound A at 3 uM)
Cc1c(-c2cc(C(=O)[O-])c3c(OC[C@@H]4C[C@H]5CC[C@@H](C4)O5)ccc(C)c3n2)sc2ccccc12.[Na+] [Compound 358] | ++ (activity>50% of CFTR amplifier+VX-809 (3 uM) with compound at 10 uM and Compound A at 3 uM)
Cc1c(-c2cc(C(=O)[O-])c3c(OC[C@H]4C[C@H]5CC[C@@H](C4)O5)ccc(C)c3n2)sc2ccccc12.[Na+] [Compound 359] | ++ (activity>50% of CFTR amplifier+VX-809 (3 uM) with compound at 10 uM and Compound A at 3 uM)
Cc1c(-c2cc(C(=O)O)c3c(OC(C)c4ccc(S(N)(=O)=O)cc4)ccc(C)c3n2)oc2ccccc12 (stereo not shown) [Compound 360] | ++ (activity>50% of CFTR amplifier+VX-809 (3 uM) with compound at 10 uM and Compound A at 3 uM)
Cc1c(-c2cc(-c3noc(O)n3)c3c(OC(C)c4ccccc4)ccc(C)c3n2)oc2ccccc12 (stereo not shown) [Compound 361] | ++ (activity>50% of CFTR amplifier+VX-809 (3 uM) with compound at 10 uM and Compound A at 3 uM)
Cc1c(-c2cc(-c3cc(O)[nH]n3)c3c(OC(C)c4ccccc4)ccc(C)c3n2)oc2ccccc12 (stereo not shown) [Compound 362] | + (activity<50% of an CFTR amplifier (Compound A)+VX-809 (3 uM) with compound at 10 uM and Compound A at 3 uM)
